Here are results for 1 compound from patent US20220098196A1, “TRAPPING-FREE PARP INHIBITORS” (The Board of Regents of the University of Texas System, priority 2019, published 2022).

In assay [1] the target is T1, PARP1 (Rattus norvegicus, UniProt P27008).
T1 construct: endogenous in cells; host or cells: primary neonatal rat cardiomyocytes
Description: PARP1 degradation in primary rat cardiomyocytes (immunoblotting). Format: cell-based. The following applies: 24 hours. For orientation: In western blotting, separated proteins are transferred to a membrane and probed.
Description: Immunoblotting. Cells were washed once with cold PBS and lysed with the SDS lysis buffer (1% SDS, 10 mM HEPES pH 7.0, 2 mM MgCl2, 500 U universal nuclease). Protein concentrations were determined by the BCA assay kit (Thermo Fisher Scientific). A total of 20 μg proteins (40 μg proteins for PAR immunoblotting experiments) were loaded onto the SDS-PAGE gel and were then transferred to a nitrocellulose membrane. Nitrocellulose membranes were then blocked with the TBST buffer containing 5% milk (Bio-Rad). Membranes were incubated with the primary antibodies overnight at 4° C. and the secondary antibodies for 1 hour at room temperature (RT). The blots were developed using enhanced chemiluminescence and were exposed on autoradiograph films.

The target of assay [2] is T2, PARP1 (Homo sapiens, UniProt P09874). Description: In Vitro PARP1 Activity Assay (PARP universal chemiluminescent assay kit). The format is biochemical. The note with it: mean±SEM (n=3). As for the experimental part: In Vitro PARP1 Activity Assay. […] Briefly, the histone-coated strip wells were hydrated with the assay buffer for 30 min. The various compounds were added and were incubated with the PARP enzyme for 10 min. The reaction cocktail containing biotinylated NAD^+ was then added into the system, which was incubated for 1 hour to activate PARP1. After the reaction, the wells were washed twice with 0.1% Triton X-100/PBS and twice with PBS. The wells were incubated with Strep-HRP for another hour and were washed again as described above. PeroxyGlow reagents were mixed and added into the strip wells, and the biotin signal on coated histone was immediately measured with chemiluminescence on a Synergy microplate reader (Bio-Tek). The well without PARP1, and the well with PARP1 only was used as the negative (0%) and positive (100%) control, respectively.
T2 sequence (P09874 whole entry): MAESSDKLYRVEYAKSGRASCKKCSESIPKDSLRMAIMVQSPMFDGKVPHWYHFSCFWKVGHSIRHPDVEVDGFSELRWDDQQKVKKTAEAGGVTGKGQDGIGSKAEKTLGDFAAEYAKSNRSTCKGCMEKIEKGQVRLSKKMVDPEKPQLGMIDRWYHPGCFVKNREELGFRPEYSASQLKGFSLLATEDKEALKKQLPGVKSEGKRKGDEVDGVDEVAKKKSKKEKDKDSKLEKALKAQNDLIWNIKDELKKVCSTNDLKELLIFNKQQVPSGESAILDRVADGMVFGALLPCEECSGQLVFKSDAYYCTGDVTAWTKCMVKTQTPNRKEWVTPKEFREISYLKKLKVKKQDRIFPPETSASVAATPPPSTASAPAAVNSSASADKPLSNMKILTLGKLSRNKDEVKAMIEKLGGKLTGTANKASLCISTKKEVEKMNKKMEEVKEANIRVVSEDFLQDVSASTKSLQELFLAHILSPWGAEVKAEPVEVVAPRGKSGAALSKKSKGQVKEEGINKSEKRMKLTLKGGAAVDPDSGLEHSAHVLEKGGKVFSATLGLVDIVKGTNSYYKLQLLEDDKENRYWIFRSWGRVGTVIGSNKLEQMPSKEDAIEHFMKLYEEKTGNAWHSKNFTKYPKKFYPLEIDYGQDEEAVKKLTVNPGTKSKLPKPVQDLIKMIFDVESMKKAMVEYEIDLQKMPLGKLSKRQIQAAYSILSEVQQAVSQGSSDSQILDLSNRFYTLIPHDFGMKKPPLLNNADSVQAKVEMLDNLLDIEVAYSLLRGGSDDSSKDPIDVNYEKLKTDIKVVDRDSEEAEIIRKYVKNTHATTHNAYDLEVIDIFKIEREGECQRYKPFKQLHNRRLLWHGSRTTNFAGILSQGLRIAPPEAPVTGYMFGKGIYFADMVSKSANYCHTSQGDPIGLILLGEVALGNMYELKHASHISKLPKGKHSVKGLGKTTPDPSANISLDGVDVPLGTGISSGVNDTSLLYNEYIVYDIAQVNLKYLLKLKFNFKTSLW

The target in assay [3] is T2, PARP1. Description: PARP1 inhibition in intact HeLa cells (PAR immunoblotting after PARG inhibitor and H2O2). The following applies: PDD00017273 1 hr, compound 10 μM 1 hr. Details: host or cells: HeLa. Format: cell-based. From the text:
HeLa cells were pretreated with a cell-permeable PARG inhibitor, PDD00017273 for 1 hr to allow the accumulation of PARylated proteins.

Assay [4] deals with T3, hexose-6-phosphate dehydrogenase (H6PD) (Homo sapiens, UniProt O95479).
T3 construct: host or cells: HeLa
T3 sequence (O95479 20-791): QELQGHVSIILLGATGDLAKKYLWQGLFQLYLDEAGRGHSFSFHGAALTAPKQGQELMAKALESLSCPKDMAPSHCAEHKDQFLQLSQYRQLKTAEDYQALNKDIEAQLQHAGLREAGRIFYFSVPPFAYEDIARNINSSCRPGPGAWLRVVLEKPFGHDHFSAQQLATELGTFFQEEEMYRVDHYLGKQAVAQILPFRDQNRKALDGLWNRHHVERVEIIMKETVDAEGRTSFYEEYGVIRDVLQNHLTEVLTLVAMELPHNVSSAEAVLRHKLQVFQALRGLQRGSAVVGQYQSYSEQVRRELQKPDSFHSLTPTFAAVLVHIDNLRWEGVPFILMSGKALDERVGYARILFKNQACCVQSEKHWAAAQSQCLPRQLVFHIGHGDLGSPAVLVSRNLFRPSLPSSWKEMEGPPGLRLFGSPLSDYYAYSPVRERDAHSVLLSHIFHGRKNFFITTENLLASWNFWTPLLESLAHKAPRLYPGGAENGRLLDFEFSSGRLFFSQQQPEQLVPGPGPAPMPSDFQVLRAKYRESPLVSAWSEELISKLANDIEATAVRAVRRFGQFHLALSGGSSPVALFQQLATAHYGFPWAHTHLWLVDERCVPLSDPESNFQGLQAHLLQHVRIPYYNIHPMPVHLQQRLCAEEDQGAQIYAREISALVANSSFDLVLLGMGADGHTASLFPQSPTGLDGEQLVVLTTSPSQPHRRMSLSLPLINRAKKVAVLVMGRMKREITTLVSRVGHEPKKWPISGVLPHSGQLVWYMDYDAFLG
Description: TMT quantitative proteomics in HeLa cells, H6PD. The format is cell-based. The note with it: 5 μM, 24 hours. From the text: Quantitative Mass Spectrometry.
Proteins were then extracted using methanol-chloroform precipitation.
The maximum intensity of each reporter ion was extracted.

Assay [5] concerns the target T4, PARP1 (Mus musculus, UniProt P11103).
T4 construct: host or cells: C2C12 myoblasts / differentiated myotubes
Description: MMS-induced PARP1 activation (PARylation) in C2C12 myotubes. The format is cell-based. The following applies: 5 μM 24 hours pretreatment, PDD 00017273, MMS 0.01% 1 hr.

In the next assay the target is ZFP91 (Homo sapiens, UniProt Q96JP5+Q96SW2). Description: TMT quantitative proteomics in BT-549 cells, ZFP91. Format: cell-based. More on the design: host or cells: HeLa; BT-549. The note with it: iRucaparib 5 μM, 24 hours. How it is done: Quantitative Mass Spectrometry. […] Two biological replicate samples were prepared for each treatment condition. Cells were washed with cold PBS and lysed using the SDS lysis buffer. Protein concentrations were determined by the BCA assay (Thermo Fisher Scientific). For each sample, 500 μg of protein was used for the subsequent TMT experiments^34.
Sequence of ZFP91 (Q16531 2-1140): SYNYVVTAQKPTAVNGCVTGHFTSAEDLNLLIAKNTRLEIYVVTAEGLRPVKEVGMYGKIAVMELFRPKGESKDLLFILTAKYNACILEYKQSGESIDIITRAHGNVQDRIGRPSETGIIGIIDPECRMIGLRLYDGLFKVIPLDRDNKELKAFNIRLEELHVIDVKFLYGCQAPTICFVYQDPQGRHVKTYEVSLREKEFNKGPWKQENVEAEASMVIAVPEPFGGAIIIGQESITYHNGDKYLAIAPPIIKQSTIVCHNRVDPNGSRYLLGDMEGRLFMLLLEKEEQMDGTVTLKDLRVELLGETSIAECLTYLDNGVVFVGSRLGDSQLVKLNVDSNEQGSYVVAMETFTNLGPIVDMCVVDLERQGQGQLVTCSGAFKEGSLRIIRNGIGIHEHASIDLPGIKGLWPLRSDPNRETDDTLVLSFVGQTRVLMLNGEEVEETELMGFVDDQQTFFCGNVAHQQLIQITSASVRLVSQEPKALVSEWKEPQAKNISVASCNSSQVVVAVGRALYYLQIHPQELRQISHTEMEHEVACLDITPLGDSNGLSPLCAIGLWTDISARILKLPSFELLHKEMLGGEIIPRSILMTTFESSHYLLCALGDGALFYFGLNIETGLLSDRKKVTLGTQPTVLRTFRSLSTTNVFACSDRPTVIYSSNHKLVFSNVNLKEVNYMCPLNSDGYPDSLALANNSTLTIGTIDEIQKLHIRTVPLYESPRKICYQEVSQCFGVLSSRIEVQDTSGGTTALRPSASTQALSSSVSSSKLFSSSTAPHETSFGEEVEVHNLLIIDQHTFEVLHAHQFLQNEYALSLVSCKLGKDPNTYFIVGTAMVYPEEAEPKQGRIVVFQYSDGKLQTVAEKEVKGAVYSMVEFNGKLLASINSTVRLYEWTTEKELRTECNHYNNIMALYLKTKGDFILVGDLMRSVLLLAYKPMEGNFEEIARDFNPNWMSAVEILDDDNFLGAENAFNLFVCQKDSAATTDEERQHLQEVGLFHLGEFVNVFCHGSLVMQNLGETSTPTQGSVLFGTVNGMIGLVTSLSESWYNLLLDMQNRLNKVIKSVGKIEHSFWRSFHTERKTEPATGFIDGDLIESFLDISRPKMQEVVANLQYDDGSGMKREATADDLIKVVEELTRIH
Sequence of ZFP91 (Q96SW2 whole entry): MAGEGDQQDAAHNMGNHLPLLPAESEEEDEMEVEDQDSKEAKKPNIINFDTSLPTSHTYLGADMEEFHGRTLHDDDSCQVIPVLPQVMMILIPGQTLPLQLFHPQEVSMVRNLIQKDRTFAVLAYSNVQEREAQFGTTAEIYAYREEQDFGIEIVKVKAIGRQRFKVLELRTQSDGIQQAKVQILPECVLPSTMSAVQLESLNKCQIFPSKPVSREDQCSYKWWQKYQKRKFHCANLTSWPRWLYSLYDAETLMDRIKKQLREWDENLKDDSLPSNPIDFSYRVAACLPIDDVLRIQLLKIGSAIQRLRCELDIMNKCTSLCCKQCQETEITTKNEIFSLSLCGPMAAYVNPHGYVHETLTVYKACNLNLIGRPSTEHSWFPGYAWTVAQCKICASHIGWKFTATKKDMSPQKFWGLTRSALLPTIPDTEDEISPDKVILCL
Sequence of ZFP91 (Q96JP5 2-570): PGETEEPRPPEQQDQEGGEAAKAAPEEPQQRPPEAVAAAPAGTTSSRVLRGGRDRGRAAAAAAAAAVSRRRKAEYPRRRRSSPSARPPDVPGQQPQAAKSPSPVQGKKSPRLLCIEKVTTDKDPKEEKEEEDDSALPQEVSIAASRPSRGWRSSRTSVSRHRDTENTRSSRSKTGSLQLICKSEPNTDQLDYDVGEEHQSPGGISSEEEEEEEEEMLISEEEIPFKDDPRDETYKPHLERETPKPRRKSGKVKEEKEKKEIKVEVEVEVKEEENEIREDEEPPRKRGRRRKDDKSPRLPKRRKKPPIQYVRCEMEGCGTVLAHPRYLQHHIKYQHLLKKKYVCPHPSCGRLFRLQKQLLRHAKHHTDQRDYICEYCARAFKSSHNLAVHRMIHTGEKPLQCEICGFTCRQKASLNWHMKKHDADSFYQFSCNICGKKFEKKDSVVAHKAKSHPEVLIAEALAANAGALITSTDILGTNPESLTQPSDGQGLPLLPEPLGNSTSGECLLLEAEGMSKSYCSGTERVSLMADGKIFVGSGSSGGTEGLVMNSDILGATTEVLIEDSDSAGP
For the TMT experiments, proteins were reduced with 2 mM DTT for 10 min and alkylated with 50 mM iodoacetamide for 30 min in dark. Proteins were then extracted using methanol-chloroform precipitation. Protein pellets were dissolved in 400 μL 8 M Urea buffer (8 M urea, 50 mM Tris-HCl, 10 mM EDTA, pH 7.5) and were digested by Lys-C (Wako, at a 1:100 enzyme/protein ratio) for 2 hours at RT. The urea concentration was then reduced to 2 M using freshly made 100 mM ammonium bicarbonate solution. […]
Samples were desalted and fractioned by bRPLC (basic pH reversed phase HPLC) on a ZORBAX 300 Extend-C18 column (Narrow Bore RR 2.1 mm×100 mm, 3.5 μm particle size, 300 Å pore size). […] Samples were then analyzed on an Orbitrap Elite mass spectrometer (Thermo Fisher Scientific) using a top 15 HCD (higher-energy collisional dissociation) method.
The maximum intensity of each reporter ion was extracted. For each reporter ion channel, the observed signal-to-noise ratio was summed across all quantified proteins and was normalized.

A further assay relates to C2C12 myotubes. Description: ATP measurement in C2C12 cells after MMS (CellTiter-Glo). Format: cell-based, mouse. The following applies: 5 μM 24 hours pretreatment, MMS 0.01% 9 hours. How it is done:
ATP and NAD^+ measurement. ATP levels were measured by a luminescence assay using the CellTiter-Glo luminescent kit (Promega). […] The cells were balanced for 30 min at RT. One hundred microliters of the CellTiter-Glo reagent was added into each well and incubated for 10 min. ATP levels were determined according the manufacturer's instruction. NAD^+ levels were assayed using an NAD/NADH quantification kit (Sigma). […] Approximately 2×10^5 cells were washed with 1 mL cold PBS and lysed in 400 μl of the extraction buffer. […] The samples were vortexed for 15 sec and centrifuged at 13,000 g for 10 min to remove the insoluble materials. NAD^+ was quantified according to the manufacturer's instruction (Sigma). Fifty microliters of the extracts were used in the NAD^+ assay, and the values were normalized by the amount of protein in each sample.

Broadly, the IC50 is the concentration that inhibits the measured activity by half.

T1 sequence (P27008 whole entry): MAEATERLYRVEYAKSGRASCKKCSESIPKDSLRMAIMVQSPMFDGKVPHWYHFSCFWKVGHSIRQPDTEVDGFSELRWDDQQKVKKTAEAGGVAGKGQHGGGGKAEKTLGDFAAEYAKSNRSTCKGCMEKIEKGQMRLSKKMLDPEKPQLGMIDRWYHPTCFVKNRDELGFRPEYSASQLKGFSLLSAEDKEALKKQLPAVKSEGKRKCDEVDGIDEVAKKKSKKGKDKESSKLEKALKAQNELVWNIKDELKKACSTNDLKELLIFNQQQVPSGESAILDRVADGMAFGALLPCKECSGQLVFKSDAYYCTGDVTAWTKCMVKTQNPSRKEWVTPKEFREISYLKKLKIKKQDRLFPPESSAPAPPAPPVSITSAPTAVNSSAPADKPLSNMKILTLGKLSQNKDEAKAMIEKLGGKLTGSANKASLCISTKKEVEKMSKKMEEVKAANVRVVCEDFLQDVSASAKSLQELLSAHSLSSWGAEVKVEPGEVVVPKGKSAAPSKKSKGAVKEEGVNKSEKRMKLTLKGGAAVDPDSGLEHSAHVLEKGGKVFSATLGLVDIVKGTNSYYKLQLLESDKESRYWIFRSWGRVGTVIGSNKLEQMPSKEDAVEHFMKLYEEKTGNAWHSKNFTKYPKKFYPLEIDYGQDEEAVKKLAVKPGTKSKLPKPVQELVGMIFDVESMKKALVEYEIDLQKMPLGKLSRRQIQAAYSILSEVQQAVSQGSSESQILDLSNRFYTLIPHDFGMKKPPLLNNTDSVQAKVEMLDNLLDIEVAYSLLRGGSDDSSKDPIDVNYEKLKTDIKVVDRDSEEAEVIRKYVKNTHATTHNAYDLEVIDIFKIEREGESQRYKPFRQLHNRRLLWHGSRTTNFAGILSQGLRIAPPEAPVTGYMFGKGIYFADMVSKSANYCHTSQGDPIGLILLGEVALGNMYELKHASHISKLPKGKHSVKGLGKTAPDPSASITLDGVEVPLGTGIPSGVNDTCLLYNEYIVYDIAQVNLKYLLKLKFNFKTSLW

For `CN(CCCCc1cn(CCOCCOCCOCCNc2cccc3c2C(=O)N(C2CCC(=O)NC2=O)C3=O)nn1)Cc1ccc(-c2[nH]c3cc(F)cc4c3c2CCNC4=O)cc1` (stereo not shown) [iRucaparib, Rucaparib-Triazole-PEG3-Pomalidomide], the PARP1 degradation result on PARP1 [1] is “robust iRucaparib-induced PARP1 degradation”. Moreover, on PARP1 [2], the IC50 was 18.3 nM. At PARP1 [3], the “PARP1 activity (PAR signal, PARP1 mobility shift)” value was “completely blocked”. The “H6PD Log 2(iRucaparib/DMSO) ratio” value in assay [4] is recorded as 0.02. In addition, the “MMS-induced PARP1 activation” value on PARP1 [5] is recorded as “completely blocked”. Also, the ZFP91 decrease at ZFP91 is listed as ~3 fold. Further, the “rescue of MMS-lowered ATP abundances” value in the assay with C2C12 myotubes is listed as “could be rescued”.
